Activity calls are given as the source filed them. The calls are words filed in the database; no cut-off is given here.
Tests used:
Mus musculus [1] = assay: The percent increase in life span on P388 cells which were inoculated intraperitoneally in CD2F1 mice at 200 mg/kg dose placed at ranking order 2; format: functional; details: P388, ip, route intraperitoneal
Mus musculus [2] = assay: The percent increase in life span on P388 cells which were inoculated intraperitoneally in CD2F1 mice at 50 mg/kg dose placed at ranking order 3; format: functional; details: P388, ip, route intraperitoneal
Mus musculus [3] = assay: The percent increase in life span on P388 cells which were inoculated intraperitoneally in CD2F1 mice at 5 mg/kg dose placed at ranking order 1; format: functional; details: P388, ip, route intraperitoneal
Mus musculus [4] = assay: Percent increase in life span (ILS) was measured on P388 cells which were inoculated intraperitoneally in CD2F1 mice; format: functional
Mus musculus [5] = assay: The percent increase in life span on P388 cells which were inoculated intraperitoneally in CD2F1 mice at 240 mg/kg dose placed at ranking order 2; format: functional; details: P388, ip, route intraperitoneal
Mus musculus [6] = assay: The percent increase in life span on P388 cells which were inoculated intraperitoneally in CD2F1 mice at 480 mg/kg dose placed at ranking order 1; format: functional; details: P388, ip, route intraperitoneal
Mus musculus [7] = assay: The percent increase in life span on P388 cells which were inoculated intraperitoneally in CD2F1 mice at 400 mg/kg (tested in the same control) dose placed at ranking order 4; format: functional; details: P388, ip, route intraperitoneal
Mus musculus [8] = assay: The percent increase in life span on P388 cells which were inoculated intraperitoneally in CD2F1 mice at 400 mg/kg dose placed at ranking order 1; format: functional; details: P388, ip, route intraperitoneal
Mus musculus [9] = assay: In vivo antitumor activity against the B16 melanoma cell sarcoma expressed as percent increase in life span; IA means inactive; format: functional, organism-based
Mus musculus [10] = assay: In vivo antitumor activity against the L1210 leukemia cell line expressed as percent increase in life span at 200 mg/kg dose; format: functional
Mus musculus [11] = assay: In vivo antitumor activity against the M5076 reticulum cell sarcoma expressed as percent increase in life span; IA means inactive; format: functional, organism-based
Mus musculus [12] = assay: The percent increase in life span on P388 cells which were inoculated intraperitoneally in CD2F1 mice at 400 mg/kg dose placed at ranking order 3; format: functional; details: P388, ip, route intraperitoneal
[13] = Ability to inhibit the dibutyryl-cAMP-induced change of an immature glioma cell to a mature, differentiated astrocyte by in vitro astrocytoma assay at 100 ug/mL dose (Experiment #1); value may range from 16 to 30; format: functional, Mus musculus
[14] = Ability to inhibit the dibutyryl-cAMP-induced change of an immature glioma cell to a mature, differentiated astrocyte by in vitro astrocytoma assay at 100 ug/mL dose (Experiment #2); value may range from 16 to 30; format: functional, Mus musculus
[15] = Ability to inhibit the dibutyryl-cAMP-induced change of an immature glioma cell to a mature, differentiated astrocyte by in vitro astrocytoma assay at 10 ug/mL dose (Experiment #1); value may range from 6 to 15; format: functional, Mus musculus
[16] = Ability to inhibit the dibutyryl-cAMP-induced change of an immature glioma cell to a mature, differentiated astrocyte by in vitro astrocytoma assay at 10 ug/mL dose (Experiment #2); value may range from 0 to 5; format: functional, Mus musculus
[17] = Ability to inhibit the dibutyryl-cAMP-induced change of an immature glioma cell to a mature, differentiated astrocyte by in vitro astrocytoma assay at 1 ug/mL dose (Experiment #1); value may range from 0 to 5; format: functional, Mus musculus
Mus musculus [18] = assay: The percent increase in life span on P388 cells which were inoculated intraperitoneally in CD2F1 mice at 100 mg/kg dose placed at ranking order 4; format: functional; details: P388, ip, route intraperitoneal
Mus musculus [19] = assay: The percent increase in life span on P388 cells which were inoculated intraperitoneally in CD2F1 mice at 200 mg/kg dose placed at ranking order 3; format: functional; details: P388, ip, route intraperitoneal
Mus musculus [20] = assay: In vivo antitumor activity against the L1210 leukemia cell line expressed as percent increase in life span; IA means inactive; format: functional, organism-based
Mus musculus [21] = assay: In vivo antitumor activity against the B16 melanoma cell line expressed as percent increase in life span; IA means inactive; format: functional, organism-based
Mus musculus [22] = assay: The percent increase in life span on P388 cells which were inoculated intraperitoneally in CD2F1 mice at 100 mg/kg dose placed at ranking order 1; format: functional; details: P388, ip, route intraperitoneal
Mus musculus [23] = assay: The percent increase in life span on P388 cells which were inoculated intraperitoneally in CD2F1 mice at 100 mg/kg dose placed at ranking order 2; format: functional; details: P388, ip, route intraperitoneal
[24] = Ability to inhibit the dibutyryl-cAMP-induced change of an immature glioma cell to a mature, differentiated astrocyte by in vitro astrocytoma assay at 1 ug/mL dose (Experiment #2); value may range from 0 to 5; format: functional, Mus musculus
Mus musculus [25] = assay: In vivo antitumor activity against the B16 melanoma cell line expressed as percent increase in life span at 1 mg/kg dose; format: functional
Mus musculus [26] = assay: In vivo antitumor activity against the M5076 reticulum cell sarcoma expressed as percent increase in life span at 4 mg/kg dose; format: functional
Mus musculus [27] = assay: Percent increase in life span (ILS) was measured on P388 cells which were inoculated intraperitoneally in CD2F1 mice at 8 mg/kg; format: functional; details: P388, ip, route intraperitoneal

CCOc1ccc(C(C)c2cc3c(cc2OCC)OCO3)cc1 (stereo not given) showed an ILS at 200 mg/kg (Mus musculus [1]) of 56%, an ILS at 50 mg/kg (Mus musculus [2]) of 36% and an ILS at 5 mg/kg (Mus musculus [3]) of 71%. It also gave an ILS (Mus musculus [4]) of 71%.
Work on CCOc1cc2c(cc1C(C)(C)c1ccc(OC)cc1)OCO2 yielded an ILS at 240 mg/kg (Mus musculus [5]) of 25%, an ILS at 480 mg/kg (Mus musculus [6]) of 35% and an ILS (Mus musculus [4]) of 35%.
With COc1cc(C(C)c2cc3c(cc2OCCO)OCO3)cc(OC)c1OC (stereo not given) the ILS at 200 mg/kg (Mus musculus [1]) was 66%, the ILS at 400 mg/kg (Mus musculus [7]) was 49% and the ILS at 400 mg/kg (Mus musculus [8]) was 80%. The ILS (Mus musculus [9]) was “inactive”, the ILS at 200 mg/kg (Mus musculus [10]; Mus musculus, L1210, dose 200 mg/kg) was 43% and the ILS (Mus musculus [10]; dose 200 mg/kg) was 33%. The ILS (Mus musculus [11]) was “inactive”, the ILS at 400 mg/kg (Mus musculus [12]) was 61% and the ILS (Mus musculus [4]) was 80%.
COc1ccc(C(C)c2cc3c(cc2OC)OCO3)cc1 (stereo not given) showed an Astrocyte reversal [13] of 30%, an Astrocyte reversal [14] of 30% and an Astrocyte reversal [15] of 15%. For the same compound, the Astrocyte reversal [16] was 5%, the Astrocyte reversal [17] was 5% and the ILS at 100 mg/kg (Mus musculus [18]) was 53%. The ILS at 200 mg/kg (Mus musculus [19]) was 74%, the ILS (Mus musculus [20]) was “inactive” and the ILS (Mus musculus [11]) was “inactive”. The ILS (Mus musculus [21]) was “inactive”, the ILS (Mus musculus [4]) was 78% and the ILS at 100 mg/kg (Mus musculus [22]) was 78%. For the same compound, the ILS at 100 mg/kg (Mus musculus [23]) was 76% and the Astrocyte reversal [24] was 5%.
For COc1cc([C@@H]2c3cc4c(cc3[C@H](O)[C@H]3COC(=O)[C@H]23)OCO4)cc(OC)c1OC [PODOFILOX], the ILS at 1 mg/kg (Mus musculus [25]) was 28%, the ILS (Mus musculus [20]) was “inactive” and the ILS at 4 mg/kg (Mus musculus [26]) was 46%. The ILS (Mus musculus [21]) was “inactive” and the ILS at 8 mg/kg (Mus musculus [27]) was 52%.

Source: ChEMBL document CHEMBL1123608, “In vivo antitumor activity of 6-benzyl-1,3-benzodioxole derivatives against the P388, L1210, B16, and M5076 murine models” (1987)
